Molecular target: AChE (acetylcholineserase)
Assay: Ellman spectrophotometric assay, […] nm
Assay type: biochemical, Electrophorus electricus
Conditions: acetylthiocholine iodide substrate; pH 8.0; 10 min preincubation

Nc1c2c(nc3ccccc13)CCCC2 [tacrine]
IC50: 825 nM
